Data set [1] has as its target T1, β3-adrenoceptor (Homo sapiens, UniProt P13945).
T1 construct: which endogenously express β1- and β3-adrenoceptors; endogenous in cells; host or cells: SK-N-MC human neuroblastoma cells
Nature of the data set: Measurement of cAMP production in SK-N-MC cells (Assay 1 - Method A). Conditions: 1 μM CGP20712A, read-out: Beta-3 EC50. Type of data set: cell-based. The procedure:
Measurement of cAMP Production in SK-N-MC Cells (Assay 1—Method A)
Human neuroblastoma cell line, SK-N-MC, which endogenously express β1- and β3-adrenoceptors was utilized. In the presence of 1 μM of […] selective antagonist, CGP20712A, the effects of the compounds on cAMP levels were examined. SK-N-MC cells were suspended in Hank's balanced salt solution containing 20 mM Hepes, 0.1% BSA, 1 mM L-ascorbic acid sodium salt, 250 nM IBMX, and 1 μM CGP20712A (pH 7.4). After incubating at 37° C. for 30 min, the compound of the present invention was added and cells were further incubated for 30 min. Total cAMP in the well was measured by cAMP ELISA kit (Tropix, Bedford, Mass.). Effect of the compound on the cAMP level was determined at 6 different concentrations from 0.1 nM to 10 μM. The concentration to induce 50% of maximum response, 50% effective concentration (EC50), was calculated. In addition, intrinsic activity (IA) was determined as a maximum response induced by each compound, and IA was expressed as relative value compared with a response induced by 10 μM isoproterenol (i.e. cAMP level increased by 10 μM isoproterenol was taken as 100%).

Data set [2] concerns the target T2, human β1-adrenoceptor (Homo sapiens, UniProt P08588).
T2 construct: expressed in transfected cells; host or cells: Chinese hamster ovary (CHO) cells
The experiment in a line: Agonistic activity, cAMP levels in CHO cells (Assay 2 - Method A). Conditions: agonist, CHO cells expressing recombinant human β1-adrenoceptor, read-out: Beta-1 EC50. Type of data set: cell-based. The procedure: (§1) Measurement of Agonistic Activity for Human β1-Adrenoceptor Or Human β2-Adrenoceptor (Assay 2—Method A)
(§2) The agonistic activity of the compound to human […] was examined by measurement of cAMP levels in Chinese hamster ovary (CHO) cells, in which recombinant human […] was expressed (hβ2-CHO cells). The hβ2-CHO cells were suspended in Hank's balanced salt solution containing 20 mM Hepes, 0.1% BSA, 1 mM L-ascorbic acid sodium salt, and 250 nM IBMX (pH 7.4). After incubating at 37° C. for 30 min, the compound of the present invention was added and cells were further incubated for 30 min. Total cAMP in the well was measured by cAMP ELISA kit (Tropix, Bedford, Mass.). The effect of the compound on the cAMP level was determined at 6 different concentrations from 0.1 nM to 10 μM. The concentration to induce 50% of maximum response, 50% effective concentration (EC50), was calculated. In addition, intrinsic activity (IA) was determined as a maximum response induced by each compound, and IA was expressed as relative value compared with a response induced by 10 μM isoproterenol (i.e. cAMP level increased by 10 μM isoproterenol was taken as 100%). Experiments with the same methods were performed in CHO cells expressing recombinant human β1-adrenoceptor to examine the effects of the compounds on human β1-adrenoceptor.
In general terms: Changes in cAMP serve as a functional read-out for many G protein-coupled receptors.

The target of data set [3] is T3, human β2-adrenoceptor (Homo sapiens, UniProt P07550).
T3 construct: expressed in transfected cells; host or cells: Chinese hamster ovary (CHO) cells (hβ2-CHO)
The description is as above. Format: cell-based. As to conditions: agonist, hβ2-CHO cells, read-out: Beta-2 EC50. The procedure:
as §1, §2

Data set [4] addresses T2, human β1-adrenoceptor. The experiment in a line: Antagonistic activity, isoproterenol-induced cAMP production in CHO cells (Assay 3). Format: cell-based. Conditions: antagonist; inhibition of cAMP production induced by 100 nM isoproterenol, CHO cells expressing human β1-adrenoceptor; read-out: Beta-1 IC50. The procedure: (§3) Measurement of Antagonistic Activity for Human […] (Assay 3)
(§4) The antagonistic activity of the compound to human β2-adrenoceptor was examined by measurement of cAMP levels in the hβ2-CHO cells stimulated by isoproterenol. The hβ2-CHO cells were suspended in Hank's balanced salt solution containing 20 mM Hepes, 0.1% BSA, 1 mM L-ascorbic acid sodium salt, and 250 nM IBMX (pH 7.4). The cells were stimulated by non-selective β-adrenoceptor agonist isoproterenol at 100 nM to increase cAMP levels. After incubating at 37° C. for 30 min, the compound of the present invention was added and cells were further incubated for 30 min. Total cAMP in the well was measured by cAMP ELISA kit (Tropix, Bedford, Mass.). Inhibitory effect of the compound on the isoproterenol-induced cAMP production was determined at 6 different concentrations from 0.1 nM to 10 μM. The concentration to induce 50% of inhibitory response, 50% inhibitory concentration (IC50), was calculated. Experiments with the same methods were performed in CHO cells expressing recombinant human β1-adrenoceptor to examine the effects of the compounds on human β1-adrenoceptor.

For data set [5], the target named is T3, human β2-adrenoceptor. The description is as above. Conditions: antagonist; inhibition of cAMP production induced by 100 nM isoproterenol, hβ2-CHO cells; read-out: Beta-2 IC50. Type of data set: cell-based. The procedure: as §3, §4
Data set [6] deals with T1, β3-adrenoceptor. Nature of the data set: Measurement of cAMP production in SK-N-MC cells (Assay 1 - Method B). Format: cell-based. As to conditions: 1 μM Atenolol, read-out: Beta-3 EC50. The procedure: Measurement of cAMP production in SK-N-MC Cells (Assay 1—Method B)
Human neuroblastoma cell line, SK-N-MC, which endogenously express […] were utilized. In the presence or absence of 1 μM of β1-adrenoceptor selective antagonist, Atenolol, the effects of the compounds on cAMP levels were examined. SK-N-MC cells were suspended in Hank's balanced salt solution containing 20 mM Hepes, 0.1% BSA, 1 mM L-ascorbic acid sodium salt, 250 nM IBMX, and 1 μM Atenolol (pH 7.4). After incubating at 37° C. for 1 h, the compound of the present invention was added and cells were further incubated for 30 min. Total cAMP in the well was measured by cAMP ELISA kit (Tropix, Bedford, Mass.). Effect of the compound on the cAMP level was determined at 8 different concentrations from 1 pM to 10 μM. The concentration to induce 50% of maximum response, 50% effective concentration (EC50), was calculated.

Data set [7] addresses T2, human β1-adrenoceptor. The experiment in a line: Agonistic activity, calcium influx in CHO cells (Assay 2 - Method B). Type of data set: cell-based. Conditions: agonist, CHO cells expressing recombinant human β1-adrenoceptor, read-out: Beta-1 EC50. An excerpt: (§5) Measurement of Agonistic Activity for Human β1-Adrenoceptor or Human β2-Adrenoceptor (Assay 2—Method B)
(§6) The agonistic activity of the compound to human β2-adrenoceptor was examined by measurement of calcium influx in Chinese hamster ovary (CHO) cells, in which recombinant human β2-adrenoceptor was expressed (hβ2-CHO cells). The cells were cultivated in DMEM F12 medium. Prior to measurement, the cells were loaded with Coelenterazine (1:2000) in Ca-Tyrode. The Ca-influx was directly measured for 45 sec (Hamamatsu FluoroBox fluorescence detector). The effect of the compound on calcium influx was determined at 8 different concentrations from 1 pM to 10 μM. The concentration to induce 50% of maximum response, 50% effective concentration (EC50), was calculated. Experiments with the same methods were performed in CHO cells expressing recombinant human β1-adrenoceptor to examine the effects of the compounds on human β1-adrenoceptor.

The target of data set [8] is T3, human β2-adrenoceptor. Described as above. Format: cell-based. Conditions: agonist, hβ2-CHO cells, read-out: Beta-2 EC50.
Text: as §5, §6

Structures can show the parent of a compound that is named as a salt.

T1 sequence (P13945 whole entry): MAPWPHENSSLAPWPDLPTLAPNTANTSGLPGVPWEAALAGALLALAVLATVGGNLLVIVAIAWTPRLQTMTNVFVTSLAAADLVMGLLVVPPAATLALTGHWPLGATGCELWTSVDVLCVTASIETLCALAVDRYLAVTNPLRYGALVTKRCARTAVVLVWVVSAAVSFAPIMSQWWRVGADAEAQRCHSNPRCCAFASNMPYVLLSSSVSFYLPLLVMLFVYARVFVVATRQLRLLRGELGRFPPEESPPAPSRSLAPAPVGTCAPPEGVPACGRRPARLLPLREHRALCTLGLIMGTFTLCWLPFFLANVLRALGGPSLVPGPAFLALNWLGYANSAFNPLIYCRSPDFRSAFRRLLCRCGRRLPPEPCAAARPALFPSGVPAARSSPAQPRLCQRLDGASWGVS
T2 sequence (P08588 whole entry): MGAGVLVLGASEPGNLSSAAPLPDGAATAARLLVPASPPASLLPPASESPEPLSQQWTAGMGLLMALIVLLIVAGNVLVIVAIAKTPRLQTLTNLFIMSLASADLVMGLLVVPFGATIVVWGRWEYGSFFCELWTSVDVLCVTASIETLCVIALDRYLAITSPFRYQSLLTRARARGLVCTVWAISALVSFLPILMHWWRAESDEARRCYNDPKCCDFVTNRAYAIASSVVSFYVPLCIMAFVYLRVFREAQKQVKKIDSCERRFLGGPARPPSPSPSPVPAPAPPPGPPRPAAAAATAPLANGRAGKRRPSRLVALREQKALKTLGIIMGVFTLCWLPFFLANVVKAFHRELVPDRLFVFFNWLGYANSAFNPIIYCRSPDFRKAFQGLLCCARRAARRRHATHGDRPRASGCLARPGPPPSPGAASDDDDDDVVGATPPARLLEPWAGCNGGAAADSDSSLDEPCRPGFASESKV
T3 sequence (P07550 whole entry): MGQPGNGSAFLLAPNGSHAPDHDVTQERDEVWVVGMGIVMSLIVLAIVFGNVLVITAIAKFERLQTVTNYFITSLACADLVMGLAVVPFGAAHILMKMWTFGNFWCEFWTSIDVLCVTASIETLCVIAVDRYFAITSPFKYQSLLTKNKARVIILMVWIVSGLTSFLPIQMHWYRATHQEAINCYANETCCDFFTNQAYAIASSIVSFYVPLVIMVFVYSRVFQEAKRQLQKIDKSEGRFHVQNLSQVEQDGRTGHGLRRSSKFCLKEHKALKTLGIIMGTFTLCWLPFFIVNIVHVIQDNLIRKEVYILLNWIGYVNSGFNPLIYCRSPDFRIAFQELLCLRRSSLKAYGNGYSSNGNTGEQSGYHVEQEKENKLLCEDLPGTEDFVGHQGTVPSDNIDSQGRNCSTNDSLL

What is called EC50 is the concentration giving half of the maximal effect. One may read the IC50 as the concentration that inhibits the measured activity by half. Turning to `O=C(O)c1ccccc1Oc1ccc2c(c1)CC[C@H](CNC[C@H](O)COc1ccccc1)O2` [Example 1, 2-{[(2R)-2-({[(2S)-2-hydroxy-3-phenoxypropyl]amino}methyl)-3,4-dihydro-2H-chromen-6-yl]oxy}benzoic Acid], the figures for the EC50 at β3-adrenoceptor [1], at human β1-adrenoceptor [2] and at human β2-adrenoceptor [3] were 26 nM, over 10000 nM and over 10000 nM, respectively. For the same molecule, the results for the IC50 at human β1-adrenoceptor [4] and on human β2-adrenoceptor [5] were over 10000 nM and 930 nM, respectively.

`CN(c1ccc(C(=O)O)cc1)c1ccc2c(c1)CC[C@H](CNC[C@H](O)COc1ccccc1)O2` [Example 2, 4-[[(2R)-2-({[(2S)-2-hydroxy-3-phenoxypropyl]amino}methyl)-3,4-dihydro-2H-chromen-6-yl](methyl)amino]benzoic acid hydrochloride]: the EC50 on β3-adrenoceptor [1] worked out at 14 nM.

With `O=C(O)c1cccc(Nc2ccc3c(c2)CC[C@H](CNC[C@H](O)COc2ccccc2)O3)c1` [Example 11], at β3-adrenoceptor [6], the EC50 was 186 nM.

As to `COc1cc(C(=O)O)ccc1Oc1ccc2c(c1)CC[C@H](CNC[C@H](O)COc1ccccc1)O2` [Example 12], the EC50 on β3-adrenoceptor [1] is 270 nM.

In the case of `CC(C)(C)c1cc(C(=O)O)ccc1Oc1ccc2c(c1)CC[C@H](CNC[C@H](O)COc1ccccc1)O2` [Example 23], the EC50 at human β2-adrenoceptor [3] is over 10000 nM.

For `N#Cc1ccc(Nc2ccc3c(c2)CC[C@H](CNC[C@H](O)COc2ccccc2)O3)cc1` [Example 29], at β3-adrenoceptor [1], the EC50 is 160 nM.

What is called melting point is the temperature of the solid-liquid transition. `O=C(O)c1ccccc1Oc1ccc2c(c1)CC[C@H](CNC[C@H](O)COc1ccccc1F)O2` [Example 36] displayed a melting point of 209 °C.

Regarding `O=C(O)c1ccccc1Oc1ccc2c(c1)CC[C@H](CNC[C@H](O)COc1ccccc1-c1ccccc1)O2` [Example 37], the melting point was determined as 175 °C. In addition, the EC50 on β3-adrenoceptor [1] worked out at 230 nM.

On to `O=C(O)c1ccccc1Oc1ccc2c(c1)CC[C@H](CNC[C@H](O)COc1ccccc1C(F)(F)F)O2` [Example 38], for which the melting point turned out to be 162 °C.

`O=C(O)c1ccccc1Oc1ccc2c(c1)CC[C@H](CNC[C@H](O)COc1ccccc1Cl)O2` [Example 39] displayed a melting point of 230 °C.

Take `O=C(O)c1ccccc1Oc1ccc2c(c1)CC[C@H](CNC[C@H](O)COc1ccc(F)cc1F)O2` [Example 40]: the melting point was 138 to 142 °C.

In turn, `O=C(O)c1ccccc1Oc1ccc2c(c1)CC[C@H](CNC[C@H](O)COc1c(F)cccc1F)O2` [Example 41] came in with a melting point of 196 to 198 °C.

The molecule `O=C(O)c1ccccc1Oc1ccc2c(c1)CC[C@H](CNC[C@H](O)COc1ccccc1N1CCOCC1)O2` [Example 42] came in with a melting point of 173 to 176 °C.

`O=C(O)c1ccccc1Oc1ccc2c(c1)CC[C@H](CNC[C@H](O)COc1ccc(F)c(Cl)c1)O2` [Example 43] gave a melting point of 196 to 199 °C.

For the molecule `O=C(O)c1cc(F)ccc1Oc1ccc2c(c1)CC[C@H](CNC[C@H](O)COc1ccccc1)O2` [Example 44, 5-fluoro-2-{[(2R)-2-({[(2S)-2-hydroxy-3-phenoxypropyl]amino}methyl)-3,4-dihydro-2H-chromen-6-yl]oxy}benzoic Acid Hydrochloride], the figures for the EC50 on β3-adrenoceptor [6], on human β1-adrenoceptor [7] and on human β2-adrenoceptor [8] were 23 nM, over 10000 nM and over 10000 nM, respectively.

With `COc1cc(Oc2ccc3c(c2)CC[C@H](CNC[C@H](O)COc2ccccc2)O3)c(C(=O)O)cc1OC` [Example 54], the 50% effective concentration (EC50) at human β1-adrenoceptor [7] is 8000 nM; at human β2-adrenoceptor [8], over 10000 nM.

(Values after patent US20050222247A1, “Chroman derivatives” (Bayer HealthCare AG, priority 2003, published 2005).)
